The results in this text go back to patent US9024044B2, “Heteroarylcarboxylic acid ester derivative” (Ajinomoto Co., Inc., priority 2012, dated 2015).

Common to all, as to type: biochemical
In experiment [1] the target is recombinant human enteropeptidase (Homo sapiens (Human), UniProt P98073). Description: Measurement of enteropeptidase inhibitory activity. The note with it: substrate Gly-Asp-Asp-Asp-Asp-Lys-β-Naphtylamide, Tris-HCl pH 8.0, Dixon plot. How it is done:
Measurement of Enteropeptidase Inhibitory Activity
Using a 96 well plate (#3915, Costar), a test compound (25 μL), 400 mM Tris-HCl buffer (pH 8.0, 25 μL) and 0.5 mg/mL fluorescence enzyme substrate (Gly-Asp-Asp-Asp-Asp-Lys-β-Naphtylamide, 25 μL) were mixed, and recombinant human enteropeptidase (R&D Systems, Inc., 25 μL) was added. Using a fluorescence plate reader fmax (Molecular Devices, Inc.), the reaction rate was measured from the time-course changes at excitation wavelength 320 nm and fluorescence wavelength 405 nm. The Ki value was calculated from the concentration of the test compound, reciprocal of reaction rate, and Km value of the enzyme substrate, and by using Dixon plot.

Experiment [2] deals with human trypsin. The experiment in a line: Measurement of trypsin inhibitory activity. Particulars: substrate Boc-Phe-Ser-Arg-AMC, Tris-HCl pH 8.0, Dixon plot. How it is done: (§1) Measurement of Trypsin Inhibitory Activity
(§2) Using a 96 well plate (#3915, Costar), a test compound (25 μL) was mixed with 20 μM fluorescence enzyme substrate (Boc-Phe-Ser-Arg-AMC, 50 μL) mixed with 200 mM Tris-HCl buffer (pH 8.0), and human trypsin (Sigma, 25 μL) was added. Using a fluorescence plate reader fmax (Molecular Devices, Inc.), the reaction rate was measured from the time-course changes at excitation wavelength 355 nm and fluorescence wavelength 460 nm. The Ki value was calculated from the concentration of the test compound, reciprocal of reaction rate, and Km value of the enzyme substrate, and by using Dixon plot.

Experiment [3] concerns the target human trypsin (Homo sapiens, UniProt P07477). The experiment in a line: Measurement of trypsin inhibitory activity. Particulars: substrate Boc-Phe-Ser-Arg-AMC, Tris-HCl pH 8.0, Dixon plot. How it is done: as §1, §2

Counter-ions that a name gives are not always drawn.

Sequence of recombinant human enteropeptidase (P98073 whole entry): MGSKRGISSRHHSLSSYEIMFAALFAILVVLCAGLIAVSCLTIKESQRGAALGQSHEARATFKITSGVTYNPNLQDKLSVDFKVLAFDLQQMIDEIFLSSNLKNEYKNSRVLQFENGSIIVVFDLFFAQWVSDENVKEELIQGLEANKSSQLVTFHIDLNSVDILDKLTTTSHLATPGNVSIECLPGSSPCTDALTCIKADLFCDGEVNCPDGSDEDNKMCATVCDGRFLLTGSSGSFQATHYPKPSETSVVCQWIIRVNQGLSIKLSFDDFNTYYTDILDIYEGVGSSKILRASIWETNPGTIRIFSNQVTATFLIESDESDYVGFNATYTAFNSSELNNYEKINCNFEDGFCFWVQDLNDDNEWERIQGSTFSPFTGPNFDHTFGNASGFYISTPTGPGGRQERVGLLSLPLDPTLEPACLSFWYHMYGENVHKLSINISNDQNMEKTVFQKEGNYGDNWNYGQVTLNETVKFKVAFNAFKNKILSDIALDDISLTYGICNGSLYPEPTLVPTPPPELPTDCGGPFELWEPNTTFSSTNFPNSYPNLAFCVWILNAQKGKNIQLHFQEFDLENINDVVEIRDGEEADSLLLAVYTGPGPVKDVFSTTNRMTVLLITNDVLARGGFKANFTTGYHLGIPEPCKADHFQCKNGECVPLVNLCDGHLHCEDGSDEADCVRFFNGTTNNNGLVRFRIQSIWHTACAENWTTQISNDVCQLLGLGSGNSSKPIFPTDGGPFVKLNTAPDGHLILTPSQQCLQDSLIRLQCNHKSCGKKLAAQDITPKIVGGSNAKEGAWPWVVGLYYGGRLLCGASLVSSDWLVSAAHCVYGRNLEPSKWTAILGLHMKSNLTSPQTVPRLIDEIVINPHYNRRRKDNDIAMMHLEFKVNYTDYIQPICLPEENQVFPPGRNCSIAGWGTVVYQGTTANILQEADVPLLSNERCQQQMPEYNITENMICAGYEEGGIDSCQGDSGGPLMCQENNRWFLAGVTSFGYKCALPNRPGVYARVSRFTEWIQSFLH

Consider `CC(C)(Cc1ccc(C(=O)Oc2ccc(C(=N)N)cc2F)s1)C(=O)NCC(=O)O` [Compound 3], for which the inhibitory constant (Ki) in experiment [1] amounted to 0.29 nM; at human trypsin [2], 0.42 nM.
For `CCCN(CC(=O)O)C(=O)C(C)(C)Cc1ccc(C(=O)Oc2ccc(C(=N)N)cc2F)s1` [Compound 10, N-{3-[5-(4-amidino-2-fluoro-phenoxycarbonyl)thiophen-2-yl]-2,2-dimethylpropionyl}-N-propylglycine hydrochloride] the same measures were 0.49 nM and 1.5 nM.
For `CCC(CC)(Cc1ccc(C(=O)Oc2ccc(C(=N)N)cc2F)s1)C(=O)N[C@H](C(=O)O)C(C)C` [Compound 13], in that order: 1.56 nM and 5.18 nM.
For `CCC(CC)(Cc1ccc(C(=O)Oc2ccc(C(=N)N)cc2F)s1)C(=O)N[C@@H](Cc1ccccc1)C(=O)O` [Compound 16], the figures for the Ki (in experiment [1]; on human trypsin [2]) were 1.1 nM and 8.3 nM, respectively.
Take `CCC(CC)(Cc1ccc(C(=O)Oc2ccc(C(=N)N)cc2F)s1)C(=O)N(C)CC(=O)O` [Compound 21, N-{3-[5-(4-amidino-2-fluoro-phenoxycarbonyl)thiophen-2-yl]-2,2-diethylpropionyl}-sarcosine hydrochloride]: the inhibitory constant (Ki) came to 0.88 nM in experiment [1] and 1.76 nM at human trypsin [3].
For `CCC(CC)(Cc1ccc(C(=O)Oc2ccc(C(=N)N)cc2F)s1)C(=O)N1CCC[C@@H]1C(=O)O` [Compound 22] the same measures were 1 nM and 3.57 nM.
With `C=CCN(CCS(=O)(=O)O)C(=O)C(C)(C)Cc1ccc(C(=O)Oc2ccc(C(=N)N)cc2F)s1` [Compound 23, N-allyl-N-{3-[5-(4-amidino-2-fluoro-phenoxycarbonyl)-thiophen-2-yl]-2,2-dimethylpropionyl}taurine], the Ki was 1.81 nM in experiment [1] and 3.17 nM at human trypsin [2].
With `CCC(CC)(Cc1ccc(C(=O)Oc2ccc(C(=N)N)cc2F)s1)C(=O)N[C@H](CC(=O)O)C(=O)O` [Compound 25], the Ki in experiment [1] came to 0.26 nM; at human trypsin [3] it was 1.04 nM.
As to `CC(C)(Cc1ccc(C(=O)Oc2ccc(C(=N)N)cc2F)s1)C(=O)N1CCC(C(=O)O)CC1` [Compound 26], the inhibition constant Ki in experiment [1] was 1.33 nM; on human trypsin [3] it was 3.1 nM.
For `CCC(CC)(Cc1ccc(C(=O)Oc2ccc(C(=N)N)cc2F)s1)C(=O)N[C@@H](C)C(=O)O` [Compound 27], in that order: 0.73 nM and 1.67 nM.
Take `CC[C@H](NC(=O)C(CC)(CC)Cc1ccc(C(=O)Oc2ccc(C(=N)N)cc2F)s1)C(=O)O` [Compound 28]: the inhibitory constant (Ki) was 0.65 nM in experiment [1] and 1.93 nM on human trypsin [2].
For `CCC[C@H](NC(=O)C(CC)(CC)Cc1ccc(C(=O)Oc2ccc(C(=N)N)cc2F)s1)C(=O)O` [Compound 29] the same measures were 1.18 nM and 3.84 nM.
For `CCC(CC)(Cc1ccc(C(=O)Oc2ccc(C(=N)N)cc2F)s1)C(=O)NCCCC(=O)O` [Compound 30], in that order: 0.94 nM and 2.73 nM.
For `CC(C)(Cc1ccc(C(=O)Oc2ccc(C(=N)N)cc2F)s1)C(=O)Nc1ccc(C(=O)O)cc1` [Compound 31], in that order: 1.08 nM and 2.89 nM.
Regarding `CC(C)(Cc1ccc(C(=O)Oc2ccc(C(=N)N)cc2F)s1)C(=O)Nc1cccc(C(=O)O)c1` [Compound 32], the inhibition constant Ki in experiment [1] was 1.43 nM; at human trypsin [2], 0.7 nM.
On to `CC(C)(Cc1ccc(C(=O)Oc2ccc(C(=N)N)cc2F)s1)C(=O)N1CC[C@@H](C(=O)O)C1` [Compound 33], for which the inhibition constant Ki stood at 1.02 nM in experiment [1] and 2 nM on human trypsin [3].
For `CC(C)(Cc1ccc(C(=O)Oc2ccc(C(=N)N)cc2F)s1)C(=O)N[C@H](C(=O)O)C1CCCCC1` [Compound 35], in that order: 2.56 nM and 3.04 nM.
Consider `CC(C)(Cc1ccc(C(=O)Oc2ccc(C(=N)N)cc2F)s1)C(=O)N[C@@H](C(=O)O)C1CCCCC1` [Compound 36], for which the Ki worked out at 4.7 nM in experiment [1] and 3.07 nM at human trypsin [3].
For `CC(C)(Cc1ccc(C(=O)Oc2ccc(C(=N)N)cc2F)s1)C(=O)N[C@H](C(=O)O)c1ccccc1` [Compound 37] the same measures were 0.96 nM and 1.51 nM.
For `CC(C)(Cc1ccc(C(=O)Oc2ccc(C(=N)N)cc2F)s1)C(=O)N[C@@H](C(=O)O)c1ccccc1` [Compound 38], in that order: 0.97 nM and 1.45 nM.
For `CC(C)(Cc1ccc(C(=O)Oc2ccc(C(=N)N)cc2F)s1)C(=O)Nc1cccnc1` [Compound 39] the same measures were 7.56 nM and 3.6 nM.
For `CC(C)(Cc1ccc(C(=O)Oc2ccc(C(=N)N)cc2F)s1)C(=O)Nc1ccc[nH]c1=O` [Compound 40], the results for the Ki (in experiment [1]; at human trypsin [3]) were 6.66 nM and 4.54 nM, respectively.
Turning to `CCC(CC)(Cc1ccc(C(=O)Oc2ccc(C(=N)N)cc2F)s1)C(=O)N[C@@H](CCC(N)=O)C(=O)O` [Compound 42], the inhibition constant Ki in experiment [1] was 1.69 nM; at human trypsin [3], 3.88 nM.
For `COc1ccc(NC(=O)C(C)(C)Cc2ccc(C(=O)Oc3ccc(C(=N)N)cc3F)s2)cn1` [Compound 45], in that order: 4.13 nM and 3.36 nM.
For `CC(C)(Cc1ccc(C(=O)Oc2ccc(C(=N)N)cc2F)s1)C(=O)N1CC(F)(F)C1` [Compound 46], in that order: 5.27 nM and 3.89 nM.
Take `CCC(CC)(Cc1ccc(C(=O)Oc2ccc(C(=N)N)cc2F)s1)C(=O)Nc1ccc(CC(=O)O)cc1` [Compound 48]: the inhibitory constant (Ki) in experiment [1] stood at 2.41 nM; on human trypsin [3], 3.35 nM.
Turning to `CC(C)(Cc1ccc(C(=O)Oc2ccc(C(=N)N)cc2F)s1)C(=O)N1CCc2ccc(C(=O)O)cc2C1` [Compound 50], the Ki in experiment [1] was 3.46 nM; on human trypsin [3], 3.49 nM.
For `COc1ncccc1NC(=O)C(C)(C)Cc1ccc(C(=O)Oc2ccc(C(=N)N)cc2F)s1` [Compound 51], in that order: 3.75 nM and 1.87 nM.
On to `CCC(CC)(Cc1ccc(C(=O)Oc2ccc(C(=N)N)cc2F)s1)C(=O)NCCC[C@H](N)C(=O)O` [Compound 52], for which the inhibitory constant (Ki) is 5.53 nM in experiment [1] and 5.78 nM on human trypsin [3].
For the compound `CC(C)(Cc1ccc(C(=O)Oc2ccc(C(=N)N)cc2F)s1)C(=O)N1C[C@@H]1C(=O)O` [Compound 54], the inhibition constant (Ki) in experiment [1] worked out at 1.76 nM; at human trypsin [3], 1.53 nM.
For `CC(C)(Cc1ccc(C(=O)Oc2ccc(C(=N)N)cc2F)s1)C(=O)NC(CCC(=O)O)(CCC(=O)O)CCC(=O)O` [Compound 58], the values for the inhibitory constant (Ki) (in experiment [1]; at human trypsin [3]) were 0.71 nM and 1.59 nM, respectively.
For `CC(C)(Cc1ccc(C(=O)Oc2ccc(C(=N)N)cc2F)s1)C(=O)Nc1cc(C(=O)O)cc(C(=O)O)c1` [Compound 59] the same measures were 0.31 nM and 0.49 nM.
Take `CC(C)(Cc1ccc(C(=O)Oc2ccc(C(=N)N)cc2F)s1)C(=O)N1C[C@H]1C(=O)O` [Compound 61]: the Ki came out at 1.13 nM in experiment [1] and 0.96 nM at human trypsin [3].
On to `CC(C)(Cc1ccc(C(=O)Oc2ccc(C(=N)N)cc2F)s1)C(=O)NCCc1nnn[nH]1` [Compound 64], for which the Ki worked out at 0.53 nM in experiment [1] and 1.6 nM on human trypsin [3].
For `CCC(CC)(Cc1ccc(C(=O)Oc2ccc(C(=N)N)cc2F)s1)C(=O)Nc1cc(C(=O)O)cc(C(=O)O)c1` [Compound 66] the same measures were 0.71 nM and 1.58 nM.
For `CCC(CC)(Cc1ccc(C(=O)Oc2ccc(C(=N)N)cc2F)s1)C(=O)Nc1cc(C(=O)O)cc(C(=O)OC)c1` [Compound 67], in that order: 3.73 nM and 4.4 nM.
For `CC(C)(Cc1ccc(C(=O)Oc2ccc(C(=N)N)cc2F)s1)C(=O)Nc1ccc(C(=O)O)c(C(=O)O)c1` [Compound 68], in that order: 0.24 nM and 0.21 nM.
Take `CC(C)(Cc1ccc(C(=O)Oc2ccc(C(=N)N)cc2F)s1)C(=O)N[C@@H](C(=O)O)c1ccc(O)cc1` [Compound 69]: the Ki in experiment [1] is 0.72 nM; at human trypsin [3], 1.14 nM.
For `CC(C)(Cc1ccc(C(=O)Oc2ccc(C(=N)N)cc2F)s1)C(=O)N[C@H]1CC[C@@H](C(=O)O)CC1` [Compound 70] the same measures were 1.11 nM and 1.7 nM.
For `CCC(CC)(Cc1ccc(C(=O)Oc2ccc(C(=N)N)cc2F)s1)C(=O)NCCCCCC(=O)O` [Compound 71] the same measures were 4.97 nM and 8.01 nM.
For `CC(C)(Cc1ccc(C(=O)Oc2ccc(C(=N)N)cc2F)s1)C(=O)N1CC(C(=O)O)C1` [Compound 72], in that order: 0.63 nM and 1.85 nM.
In the case of `CC(C)(Cc1ccc(C(=O)Oc2ccc(C(=N)N)cc2F)s1)C(=O)Nc1ccccc1C(=O)O` [Compound 73], the inhibition constant (Ki) in experiment [1] came out at 2.41 nM; on human trypsin [3], 3.65 nM.
For `CC(C)(Cc1ccc(C(=O)Oc2ccc(C(=N)N)cc2F)s1)C(=O)Nc1cc(C(=O)O)ccc1C(=O)O` [Compound 75], in that order: 0.39 nM and 3.72 nM.
For `CC(C)(Cc1ccc(C(=O)Oc2ccc(C(=N)N)cc2F)s1)C(=O)N[C@H]1CC[C@H](C(=O)O)CC1` [Compound 78] the same measures were 1.53 nM and 2.57 nM.
As to `CCC(CC)(Cc1ccc(C(=O)Oc2ccc(C(=N)N)cc2F)s1)C(=O)NC1(C(=O)O)CC1` [Compound 79], the Ki in experiment [1] was found to be 1.12 nM; at human trypsin [3], 2.19 nM.
